Results from ChEMBL document CHEMBL5505968, “Hybrids of selective COX-2 inhibitors and active derivatives of edaravone as COX-2 selective NSAIDs with free radical scavenging activity: Design, synthesis and biological activities” (Eur J Med Chem, 2024).
One block for each molecule: values may come before it.

Columns and labels:
[1] = Antioxidant activity assessed as DPPH radical scavenging activity at 40 uM incubated for 30 mins by thermo-microplate photometric analysis relative to control; assay type: functional
[2] = biological target: Prostaglandin G/H synthase 2 (Homo sapiens) (UniProt P35354); assay: Inhibition of COX-2 (unknown origin) using arachidonic acid as substrate at 1 uM preincubated for 10 mins followed by substrate addition and measured after 5 mins by fluorescence based analysis relative to control; conditions: time 15.0 min
[3] = biological target: Prostaglandin G/H synthase 2 (Homo sapiens) (UniProt P35354); assay: Inhibition of COX-2 (unknown origin) using arachidonic acid as substrate at 10 uM preincubated for 10 mins followed by substrate addition and measured after 5 mins by fluorescence based analysis relative to control; conditions: time 15.0 min
Liver [4] = assay: Antioxidant activity against FeCl2 induced oxidative stress in ICR mouse liver assessed as inhibition of malondialdehyde level at 1000 uM incubated for 60 mins by thermo-microplate photometric analysis relative to control; assay type: functional; conditions: 1 h
[5] = Antioxidant activity assessed as DPPH radical scavenging activity incubated for 30 mins by thermo-microplate photometric analysis; assay type: functional
Liver [6] = assay: Antioxidant activity against FeCl2 induced oxidative stress in ICR mouse liver assessed as inhibition of malondialdehyde level at 250 uM incubated for 60 mins by thermo-microplate photometric analysis relative to control; assay type: functional; conditions: 1 h
Liver [7] = assay: Antioxidant activity against FeCl2 induced oxidative stress in ICR mouse liver assessed as inhibition of malondialdehyde level at 500 uM incubated for 60 mins by thermo-microplate photometric analysis relative to control; assay type: functional; conditions: 1 h
Mus musculus [8] = assay: Analgesic activity against acetic acid-induced ICR mouse assessed as inhibition of writhing at 20 mg/kg,ip pre-administrated with compound for 15 mins followed by acetic acid addition and measured after 15 mins; assay type: functional; conditions: 0.5 h, time 30 min
[9] = Apparent volume of distribution in ICR mouse at 1 mg/kg,iv administration measured for 0.25 to 8 hrs by LC-MS/MS analysis; assay type: ADME, organism-based; conditions: in vivo, time 0.25-8 hrs, read-out: Vz
[10] = Clearance in ICR mouse at 10 mg/kg,po administration measured for 0.25 to 8 hrs by LC-MS/MS analysis; assay type: ADME, organism-based; conditions: in vivo, time 0.25-8 hrs
[11] = AUC (0 to t) in ICR mouse at 10 mg/kg,po administration measured for 0.25 to 8 hrs by LC-MS/MS analysis; assay type: ADME, organism-based; conditions: in vivo, time 0.25-8 hrs
Mus musculus [12] = assay: Analgesic activity against acetic acid-induced ICR mouse assessed as number of writhing at 20 mg/kg,ip pre-administrated with compound for 15 mins followed by acetic acid addition and measured after 15 mins; assay type: functional; conditions: time 30 min, 0.5 h
[13] = AUC (0 to infinity) in ICR mouse at 1 mg/kg,iv administration measured for 0.25 to 8 hrs by LC-MS/MS analysis; assay type: ADME, organism-based; conditions: in vivo, time 0.25-8 hrs
[14] = MRT (0 to infinity) in ICR mouse at 1 mg/kg,iv administration measured for 0.25 to 8 hrs by LC-MS/MS analysis; assay type: ADME, organism-based; conditions: in vivo, time 0.25-8 hrs
[15] = MRT (0 to infinity) in ICR mouse at 10 mg/kg,po administration measured for 0.25 to 8 hrs by LC-MS/MS analysis; assay type: ADME, organism-based; conditions: in vivo, time 0.25-8 hrs
Mus musculus [16] = assay: Analgesic activity against acetic acid-induced ICR mouse assessed as inhibition of writhing at 50 mg/kg,ip pre-administrated with compound for 15 mins followed by acetic acid addition and measured after 15 mins; assay type: functional; conditions: 0.5 h, time 30 min
[17] = AUC (0 to infinity) in ICR mouse at 10 mg/kg,po administration measured for 0.25 to 8 hrs by LC-MS/MS analysis; assay type: ADME, organism-based; conditions: in vivo, time 0.25-8 hrs
[18] = Clearance in ICR mouse at 1 mg/kg,iv administration measured for 0.25 to 8 hrs by LC-MS/MS analysis; assay type: ADME, organism-based; conditions: in vivo, time 0.25-8 hrs
[19] = Cmax in ICR mouse at 10 mg/kg,po administration measured for 0.25 to 8 hrs by LC-MS/MS analysis; assay type: ADME, organism-based; conditions: in vivo, time 0.25-8 hrs
[20] = Tmax in ICR mouse at 10 mg/kg,po administration measured for 0.25 to 8 hrs by LC-MS/MS analysis; assay type: ADME, organism-based; conditions: in vivo, time 0.25-8 hrs
[21] = Half life in ICR mouse at 1 mg/kg,iv administration measured for 0.25 to 8 hrs by LC-MS/MS analysis; assay type: ADME, organism-based; conditions: in vivo, time 0.25-8 hrs
Mus musculus [22] = assay: Analgesic activity against acetic acid-induced ICR mouse assessed as number of writhing at 50 mg/kg,ip pre-administrated with compound for 15 mins followed by acetic acid addition and measured after 15 mins; assay type: functional; conditions: time 30 min, 0.5 h
[23] = Cmax in ICR mouse at 1 mg/kg,iv administration measured for 0.25 to 8 hrs by LC-MS/MS analysis; assay type: ADME, organism-based; conditions: in vivo, time 0.25-8 hrs
[24] = AUC (0 to t) in ICR mouse at 1 mg/kg,iv administration measured for 0.25 to 8 hrs by LC-MS/MS analysis; assay type: ADME, organism-based; conditions: in vivo, time 0.25-8 hrs
[25] = Apparent volume of distribution in ICR mouse at 10 mg/kg,po administration measured for 0.25 to 8 hrs by LC-MS/MS analysis; assay type: ADME, organism-based; conditions: in vivo, time 0.25-8 hrs
[26] = Half life in ICR mouse at 10 mg/kg,po administration measured for 0.25 to 8 hrs by LC-MS/MS analysis; assay type: ADME, organism-based; conditions: in vivo, time 0.25-8 hrs
[27] = Bioavailability in ICR mouse at 1 mg/kg,iv administration measured for 0.25 to 8 hrs by LC-MS/MS analysis; assay type: ADME, organism-based; conditions: in vivo, time 0.25-8 hrs
[28] = Tmax in ICR mouse at 1 mg/kg,iv administration measured for 0.25 to 8 hrs by LC-MS/MS analysis; assay type: ADME, organism-based; conditions: in vivo, time 0.25-8 hrs

Chain of Prostaglandin G/H synthase 2 (Homo sapiens) (P35354 whole entry, looked up): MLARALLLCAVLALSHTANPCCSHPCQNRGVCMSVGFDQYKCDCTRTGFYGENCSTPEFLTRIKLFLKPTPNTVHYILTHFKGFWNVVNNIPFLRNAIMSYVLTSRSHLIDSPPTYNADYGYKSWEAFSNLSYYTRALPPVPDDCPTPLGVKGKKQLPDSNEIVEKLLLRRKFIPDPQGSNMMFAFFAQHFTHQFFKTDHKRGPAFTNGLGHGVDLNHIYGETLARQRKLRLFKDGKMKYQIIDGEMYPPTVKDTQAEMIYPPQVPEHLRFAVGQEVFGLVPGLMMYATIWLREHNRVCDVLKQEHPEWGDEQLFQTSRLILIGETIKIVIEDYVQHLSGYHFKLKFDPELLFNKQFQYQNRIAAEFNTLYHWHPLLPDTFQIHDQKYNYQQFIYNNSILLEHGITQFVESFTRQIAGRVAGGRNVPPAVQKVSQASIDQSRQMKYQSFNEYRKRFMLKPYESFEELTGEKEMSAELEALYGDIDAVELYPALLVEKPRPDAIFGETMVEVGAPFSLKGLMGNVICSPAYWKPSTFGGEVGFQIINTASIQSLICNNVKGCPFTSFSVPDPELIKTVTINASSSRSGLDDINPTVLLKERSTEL

SMILES: Cc1nn(-c2ccc(Cl)c(Cl)c2)c(O)c1Cc1ccc(C(=O)O)cc1
inhibition [1]: 38.6%
inhibition [2]: 50.5%
inhibition [3]: 81%

SMILES: CC1=NN(c2ccccc2)C(=O)C1 [EDARAVONE]
inhibition at 1000 µM (Liver [4]): 62.2%
IC50 [5]: 32.8 µM
inhibition [1]: 64.3%
inhibition at 250 µM (Liver [6]): 37.7%
inhibition at 500 µM (Liver [7]): 46.9%

SMILES: Cc1nn(-c2cccc(Cl)c2)c(O)c1Cc1ccc(C(=O)NO)cc1
IC50 [5]: 23.8 µM
inhibition [1]: 69.2%
inhibition [2]: 75%
inhibition [3]: 90.5%

SMILES: COc1cccc(-n2nc(C)c(Cc3ccc(C(=O)O)cc3)c2O)c1
inhibition [1]: 33.6%
inhibition [2]: 58.5%
inhibition [3]: 79%

SMILES: Cc1nn(-c2ccccc2)c(O)c1Cc1cccc(S(C)(=O)=O)c1
inhibition [1]: 22.8%
inhibition [2]: 77.5%
inhibition [3]: 84.5%

SMILES: Cc1[nH]n(-c2ccccc2)c(=O)c1Cc1ccc(C(=O)NO)cc1
inhibition in vivo at 20 mg/kg (Mus musculus [8]): 70.2%
Vd [9]: 0.508 L/kg
CL/F [10]: 5.92 mL/min/kg
AUC(0-t) [11]: 20300 ng·h/mL
Activity (Mus musculus [12]): 11.1
AUC(0-inf) [13]: 7870 ng·h/mL
MRT inf [14]: 1.08 h
MRT inf [15]: 6.32 h
inhibition at 1000 µM (Liver [4]): 77.3%
IC50 [5]: 19.9 µM
inhibition in vivo at 50 mg/kg (Mus musculus [16]): 73.7%
AUC(0-inf) [17]: 28400 ng·h/mL
clearance [18]: 2.12 mL/min/kg
Cmax [19]: 4510 ng/mL
inhibition [1]: 71.6%
Tmax [20]: 1 h
half-life [21]: 2.74 h
Activity (Mus musculus [22]): 9.8
Cmax [23]: 12200 ng/mL
AUC(0-t) [24]: 7680 ng·h/mL
Vz [25]: 2.13507 L/kg
half-life [26]: 4.16 h
inhibition at 250 µM (Liver [6]): 51.9%
bioavailability [27]: 36%
inhibition [2]: 87%
Tmax [28]: 4.8 min
inhibition at 500 µM (Liver [7]): 62.3%
inhibition [3]: 98%

SMILES: CC(C)(C)c1nn(-c2ccccc2)c(O)c1Cc1ccc(C(=O)NO)cc1
IC50 [5]: 19.6 µM
inhibition [1]: 72.9%
inhibition [2]: 75%
inhibition [3]: 89%

SMILES: Cc1nn(-c2ccc(Cl)cc2)c(O)c1Cc1ccc(C(=O)NO)cc1
inhibition [1]: 68%
inhibition [2]: 64.5%
inhibition [3]: 78.5%

SMILES: CCc1nn(-c2ccccc2)c(O)c1Cc1ccc(C(=O)NO)cc1
IC50 [5]: 22.1 µM
inhibition [1]: 67.7%
inhibition [2]: 70.5%
inhibition [3]: 82.5%

SMILES: Cc1ccc(-c2cc(C(F)(F)F)nn2-c2ccc(S(N)(=O)=O)cc2)cc1 [CELECOXIB]
inhibition in vivo at 20 mg/kg (Mus musculus [8]): 80.9%
Activity (Mus musculus [12]): 7.1

Continued, in another order:

inhibition [2]: 66.5%
inhibition [3]: 86%
SMILES: Cc1[nH]n(-c2ccccc2)c(=O)c1Cc1cccc(C(=O)NO)c1
inhibition [1]: 11%

inhibition [2]: 57.5%
inhibition [3]: 82%
SMILES: O=C(O)c1ccc(Cc2c(C3CC3)nn(-c3ccccc3)c2O)cc1
inhibition [1]: 37.3%

inhibition [2]: 54.5%
inhibition [3]: 73%
SMILES: CC(C)(C)c1nn(-c2ccccc2)c(O)c1Cc1ccc(C(=O)O)cc1
inhibition [1]: 49.9%

inhibition [2]: 85.5%
inhibition [3]: 95%
SMILES: Cc1nn(-c2ccccc2)c(O)c1Cc1ccc(C(=O)O)cc1
inhibition [1]: 37.7%

inhibition [2]: 46%
inhibition [3]: 78.5%
SMILES: Cc1nn(-c2ccc(Cl)cc2)c(O)c1Cc1ccc(C(=O)O)cc1
inhibition [1]: 36.1%

inhibition [2]: 55%
inhibition [3]: 72.5%
SMILES: O=C(NO)c1ccc(Cc2c(C3CC3)[nH]n(-c3ccccc3)c2=O)cc1
inhibition [1]: 64.7%

inhibition [2]: 63.5%
inhibition [3]: 94.5%
SMILES: Cc1nn(-c2ccccc2)c(O)c1Cc1cccc(C(=O)O)c1
inhibition [1]: 17.4%

inhibition [2]: 45.5%
inhibition [3]: 75%
SMILES: Cc1nn(-c2cccc(Cl)c2)c(O)c1Cc1ccc(C(=O)O)cc1
inhibition [1]: 35.8%

inhibition [2]: 63.5%
inhibition [3]: 83.5%
SMILES: CCc1nn(-c2ccccc2)c(O)c1Cc1ccc(C(=O)O)cc1
inhibition [1]: 42.7%

inhibition [2]: 78%
inhibition [3]: 86.5%
SMILES: Cc1nn(-c2ccccc2)c(O)c1Cc1ccc(CC(=O)O)cc1
inhibition [1]: 38.5%

inhibition [2]: 77.5%
inhibition [3]: 90%
SMILES: Cc1nn(-c2ccccc2)c(O)c1Cc1ccc(S(C)(=O)=O)cc1
inhibition [1]: 37.1%

inhibition [2]: 58.5%
inhibition [3]: 80.5%
SMILES: Cc1nn(-c2ccc(Cl)c(Cl)c2)c(O)c1Cc1ccc(C(=O)NO)cc1
inhibition [1]: 58.1%

inhibition [2]: 78%
inhibition [3]: 89%
SMILES: COc1cccc(-n2nc(C)c(Cc3ccc(C(=O)NO)cc3)c2O)c1
inhibition [1]: 43.3%
